Test results from US20090005435A1, “Novel Compounds, Pharmaceutical Compositions Containing Same, and Methods of Use for Same” (priority 2004, published 2009).
In brackets after ≈: the same amount, converted by molar mass. Several values for one entry are separate records, joined by “and”; a condition that tells them apart may be missing. Equal values may be shown once.

How the values were obtained:
Type in all cases: cell-based
[1] = test system: MCF-7 human breast cancer cells; test: XTT cytotoxicity assay (M); conditions: MCF7
Experimental: (§1) The XTT assay is a non-radioactive alternative for the [^51Cr] release cytotoxicity assay. XTT is a tetrazolium salt that is reduced to a formazan dye only by metabolically active, viable cells. The reduction of XTT is measured spectrophotometrically as OD490-OD650.
To measure the cytotoxicity of specific compounds against cancer cells, 9×10^3 MCF-7 human breast cancer cells, obtained from the American Type Culture Collection are plated per well in 96 well plates in DMEM medium with 10% fetal bovine serum, insulin, penicillin, and streptomycin. Following overnight culture at 37° C. and 5% CO2, the compounds to be tested, dissolved in DMSO, are added to the wells in 1 μl volume at the following concentrations: 80, 40, 20, 10, 5, 2.5, 1.25, and 0.625 μg/ml in triplicate. Additional concentrations are tested if required. 1 μl of DMSO is added to triplicate wells are the vehicle control. C75 is run at 40, 20, […], and 5 μg/ml in triplicate as positive controls.
(§2) After 72 hours of incubation, cells are incubated for 4 hours with the XTT reagent as per manufacturer's instructions (Cell Proliferation Kit II (XTT) Roche). Plates are read at OD490 and OD650 on a Molecular Devices SpectraMax Plus Spectrophotometer. Three wells containing the XTT reagent without cells serve as the plate blank. XTT data are reported as OD490-OD650. Averages and standard error of the mean are computed using SOFTmax Pro software ([…]).
(§3) The IC50 for the compounds is defined as the concentration of drug leading to a 50% reduction in OD490-OD650 compared to controls. The OD490-OD650 are computed by the SOFTmax PRO software (Molecular Devices) for each compound concentration. IC50 is calculated by linear regression, plotting the FAS activity as percent of control versus drug concentrations. Linear regression, best-fit line, r^2, and 95% confidence intervals are determined using Prism Version 3.0 (Graph Pad Software).

(O) = test: XTT cytotoxicity assay (O); conditions: read-out: XTT (IC50) (O)
Experimental: as §1, §2, §3

fatty acid oxidation = test: β-Oxidation assay, isolation of acid soluble products; set-up: Beta Oxidation: unit not given here; conditions: for FAO MAx: maximal fatty acid oxidation, at the concentration given under E32
Experimental: β-Oxidation Assay—Isolation of Acid Soluble Products A 24 well plate with 1 ml per well was prepared with 2.5×10^5 cells/well. The cells were incubated O/N. The next day, a solubilized palmitate solution was prepared. 50 μls of (1-^14C) Palmitic acid was added to a 2 ml centrifuge tube and dried under nitrogen gas. 2 mls of α-CD (α-Cyclodextran)-10 mg/ml in 10 mM Tris were added. This solution was incubated in a 37° C. water bath for 30 minutes. A hot mix was prepared by adding 25 μls of this solution to 2.5 μls of 200 μM Carnitine and 222.5 μls of serum free medium that is used for cells. The cells were then treated with the test compound in triplicate, and incubated at 37° C. for 60 minutes. The medium was removed and 250 μls of the hot mix were added. The test compound was added again, and further incubated at 37° C. for 60 minutes. The reaction was stopped with 50 μls of 2.6 N HClO4. The contents of the plate were transferred to a 1.5 ml centrifuge tube, and 50 μls of 4N KOH were then added, and the tube incubated in a 60° C. water bath for 30 min. Sodium acetate (1M, 75 μls) and sulfuric acid (3N, 50 μls) were added to the solution and vortexed. The tube was spun for 7 minutes at 1000 rpm at room temperature. A portion (225 μls) was removed, and the following were added (vortex after each addition, twice at the end): 938 μls of 1:1 Chloroform:Methanol; 468 μls of Chloroform; 281 μls distilled Water. The tubes were spun at 1000 rpm for 5 minutes. The upper phase was removed into a large glass scintillation vial and 5 mls of Budget solvent (scintillation liquid) was added. The tubes were well vortexed. Finally, C14 was counted for one minute.

Compound	IC50 [1]	IC50 ((O))	Beta Oxidation (fatty acid oxidation; 1.25 ug/ml)	Beta Oxidation (fatty acid oxidation; 2.5 ug/ml)	Beta Oxidation (fatty acid oxidation; 5 ug/ml)	Beta Oxidation (fatty acid oxidation; 10 ug/ml)	Beta Oxidation (fatty acid oxidation; 20 ug/ml)	Beta Oxidation (fatty acid oxidation; 40 ug/ml)	FAO MAx, concentration at maximum (fatty acid oxidation)	FAO SC 150 (fatty acid oxidation)	Beta Oxidation (fatty acid oxidation; 0.097 ug/ml)	Beta Oxidation (fatty acid oxidation; 0.39 ug/ml)	Beta Oxidation (fatty acid oxidation; 1.56 ug/ml)	Beta Oxidation (fatty acid oxidation; 6.25 ug/ml)	Beta Oxidation (fatty acid oxidation; 25 ug/ml)	Beta Oxidation (fatty acid oxidation; 100 ug/ml)	FAO MAx (fatty acid oxidation)
C=CCC1(CC=C)C(=O)SC(C)(CCCCCCCC)C1=O (racemic) [Compound 4, 3,3-Diallyl-5-methyl-5-octyl-thiophene-2,4-dione]	40.5 ± 14.8 µg/mL (≈ 126 µM)	53.7 ± 1 µg/mL (≈ 167 µM)	94 and 151	114 and 163	120 and 154 and 177	163 and 177 and 184	147	101									
CCCCCCCCCCC1(C)SC(=O)C(C)(C)C1=O (stereo not drawn) [Compound 12, 3,3,5-Trimethyl-5-decyl-thiophene-2,4-dione]	23.2 µg/mL (≈ 77.7 µM)	> 80 µg/mL							1.56 µg/mL	1.4 µg/mL	100	120	154	141	75	68	154%
C=CCC1(CC=C)C(=O)SC(C)(CCCCCCCCCC)C1=O (stereo not drawn) [Compound 15, 3,3-Diallyl-5-methyl-5-decyl-thiophene-2,4-dione]	71.8 µg/mL (≈ 205 µM)	> 80 µg/mL							25 µg/mL	16.0 µg/mL	105	114	127	138	165	150	165%
